# Results reported in PMC5385491, “Antiviral activity of chlorogenic acid against influenza A (H1N1/H3N2) virus and its inhibition of neuraminidase” (Scientific Reports, 2017).
# Target: T1, NA of influenza A/PuertoRico/8/1934 (H1N1) virus (Influenza A virus (A/Puerto Rico/8/1934(H1N1)), UniProt P03468)
# T1 construct: native viral NA in allantoic fluid of infected embryonated chicken eggs (whole virus, not purified)
# Experiment: fluorescence NA inhibition assay with MU-NANA
# Assay type: biochemical
# Conditions: MU-NANA substrate (30 μl of 80 μM in 100 μl); 10 min preincubation, 30 min reaction, 37 °C; virus-containing allantoic fluid
# T1 sequence (P03468 whole entry): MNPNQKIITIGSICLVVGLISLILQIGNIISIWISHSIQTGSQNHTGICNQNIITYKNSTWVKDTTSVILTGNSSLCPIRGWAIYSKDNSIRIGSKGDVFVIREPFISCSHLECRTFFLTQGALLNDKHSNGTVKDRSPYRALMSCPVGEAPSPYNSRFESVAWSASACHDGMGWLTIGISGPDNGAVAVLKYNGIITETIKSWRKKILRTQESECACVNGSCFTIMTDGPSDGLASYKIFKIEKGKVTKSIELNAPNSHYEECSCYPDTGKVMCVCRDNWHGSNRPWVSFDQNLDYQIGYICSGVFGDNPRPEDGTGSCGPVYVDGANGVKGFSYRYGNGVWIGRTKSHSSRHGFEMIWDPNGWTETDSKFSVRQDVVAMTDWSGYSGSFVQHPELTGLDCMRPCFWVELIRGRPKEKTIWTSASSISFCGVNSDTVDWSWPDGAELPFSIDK
smiles,measurement,value
"O=C(/C=C/c1ccc(O)c(O)c1)O[C@@H]1C[C@](O)(C(=O)O)C[C@@H](O)[C@H]1O [CHA, chlorogenic acid]",IC50,22.1 ± 1.07 µM
